Test results published in PMC10924921, “Mi-2β promotes immune evasion in melanoma by activating EZH2 methylation” (Nature Communications, 2024).

Legend:
Assay in all cases: biochemical
Set-up in all cases: KINOMEscan active-site competition binding panel (468 kinase assays), per cent of control at 1000 nM
Settings in all cases: KINOMEscan per cent of control (binding competition); read-out: Percent Control
TRKC = molecular target: T1, TRKC (Homo sapiens, UniProt Q16288)
T1 construct: gene NTRK3
From the text: (§1) Figure S7 / Percent Control

YANK1 = molecular target: T2, YANK1 (Homo sapiens, UniProt Q8WU08)
T2 construct: gene STK32A
From the text: as §1

IKK-beta = molecular target: T3, IKK-beta (Homo sapiens, UniProt O14920)
T3 construct: gene IKBKB
From the text: as §1

NIM1 = molecular target: T4, NIM1 (Homo sapiens, UniProt Q8IY84)
T4 construct: gene NIM1K
From the text: as §1

DDR2 = DDR2 (Homo sapiens, UniProt Q16832)
Chain of DDR2 (Q16832 whole entry): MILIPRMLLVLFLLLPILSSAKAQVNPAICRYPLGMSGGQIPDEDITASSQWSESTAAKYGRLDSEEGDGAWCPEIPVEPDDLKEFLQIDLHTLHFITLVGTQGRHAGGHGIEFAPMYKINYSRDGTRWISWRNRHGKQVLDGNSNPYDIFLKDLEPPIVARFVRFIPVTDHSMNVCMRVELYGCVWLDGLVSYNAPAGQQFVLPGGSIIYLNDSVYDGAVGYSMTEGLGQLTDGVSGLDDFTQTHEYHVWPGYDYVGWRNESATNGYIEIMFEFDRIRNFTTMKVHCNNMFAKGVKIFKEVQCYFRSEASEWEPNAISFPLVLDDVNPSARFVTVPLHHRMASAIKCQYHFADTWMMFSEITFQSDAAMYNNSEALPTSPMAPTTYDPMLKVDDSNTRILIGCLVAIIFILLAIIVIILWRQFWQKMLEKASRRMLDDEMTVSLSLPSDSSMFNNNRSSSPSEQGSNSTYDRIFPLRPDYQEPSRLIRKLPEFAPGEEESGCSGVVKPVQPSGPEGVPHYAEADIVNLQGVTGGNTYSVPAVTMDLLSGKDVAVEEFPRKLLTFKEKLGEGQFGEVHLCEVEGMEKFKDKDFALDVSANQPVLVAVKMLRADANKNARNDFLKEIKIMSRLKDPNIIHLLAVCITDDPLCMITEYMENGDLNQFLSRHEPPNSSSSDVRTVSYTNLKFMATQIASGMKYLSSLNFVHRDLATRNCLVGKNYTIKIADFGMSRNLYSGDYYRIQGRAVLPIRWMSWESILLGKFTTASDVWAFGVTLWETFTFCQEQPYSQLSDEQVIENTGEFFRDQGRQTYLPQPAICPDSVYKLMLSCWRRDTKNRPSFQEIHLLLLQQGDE
From the text: as §1

CLK2 = CLK2 (Homo sapiens, UniProt P49760)
From the text: as §1

KIT(D816V) = KIT(D816V) (Homo sapiens, UniProt P10721, D816V)
From the text: as §1

CSNK1E = CSNK1E (Homo sapiens, UniProt P49674)
From the text: as §1

TTK = TTK (Homo sapiens, UniProt P33981)
From the text: as §1

CDKL5 = CDKL5 (Homo sapiens, UniProt O76039)
From the text: as §1

EGFR = EGFR (Homo sapiens, UniProt P00533)
From the text: as §1

ERK4 = molecular target: T5, ERK4 (Homo sapiens, UniProt P31152)
T5 construct: gene MAPK4
From the text: as §1

PIK3CA(M1043I) = PIK3CA(M1043I) (Homo sapiens, UniProt P42336, M1043I)
From the text: as §1

ABL2 = ABL2 (Homo sapiens, UniProt P42684)
From the text: as §1

[1] = molecular target: T6, ABL1(Q252H)-phosphorylated (Homo sapiens, UniProt P00519, Q252H)
T6 construct: phosphorylated
From the text: as §1

RET(V804L) = RET(V804L) (Homo sapiens, UniProt P07949, V804L)
Chain of RET(V804L) (P07949 whole entry V804L): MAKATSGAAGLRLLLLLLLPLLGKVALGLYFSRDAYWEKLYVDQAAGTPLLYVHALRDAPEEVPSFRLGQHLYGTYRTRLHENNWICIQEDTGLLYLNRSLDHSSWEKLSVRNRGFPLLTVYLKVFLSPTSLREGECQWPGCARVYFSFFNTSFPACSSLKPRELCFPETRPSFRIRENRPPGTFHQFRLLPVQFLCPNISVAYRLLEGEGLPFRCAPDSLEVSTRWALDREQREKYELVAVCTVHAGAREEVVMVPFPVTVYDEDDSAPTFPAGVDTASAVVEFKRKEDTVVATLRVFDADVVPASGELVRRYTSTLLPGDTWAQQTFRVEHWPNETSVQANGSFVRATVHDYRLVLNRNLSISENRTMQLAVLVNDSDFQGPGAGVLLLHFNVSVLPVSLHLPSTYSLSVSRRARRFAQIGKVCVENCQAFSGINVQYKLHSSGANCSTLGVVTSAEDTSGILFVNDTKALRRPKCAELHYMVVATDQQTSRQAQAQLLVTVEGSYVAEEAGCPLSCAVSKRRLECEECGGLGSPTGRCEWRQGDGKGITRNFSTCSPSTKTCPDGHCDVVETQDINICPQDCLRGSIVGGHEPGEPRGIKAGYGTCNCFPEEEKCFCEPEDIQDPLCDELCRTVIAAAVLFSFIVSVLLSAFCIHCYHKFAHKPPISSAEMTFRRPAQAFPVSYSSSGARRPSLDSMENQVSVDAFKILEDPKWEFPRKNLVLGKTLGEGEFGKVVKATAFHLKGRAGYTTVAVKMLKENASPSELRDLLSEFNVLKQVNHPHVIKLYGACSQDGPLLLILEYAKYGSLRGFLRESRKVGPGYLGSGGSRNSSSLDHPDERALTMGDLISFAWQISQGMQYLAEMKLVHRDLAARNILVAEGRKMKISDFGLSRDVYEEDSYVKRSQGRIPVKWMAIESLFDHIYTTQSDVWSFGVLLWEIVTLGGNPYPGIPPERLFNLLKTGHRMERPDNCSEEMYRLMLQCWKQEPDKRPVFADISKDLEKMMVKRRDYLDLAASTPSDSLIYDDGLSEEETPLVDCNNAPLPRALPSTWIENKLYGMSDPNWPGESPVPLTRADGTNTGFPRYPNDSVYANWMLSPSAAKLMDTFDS
From the text: as §1

DCAMKL1 = molecular target: T7, DCAMKL1 (Homo sapiens, UniProt O15075)
T7 construct: gene DCLK1
From the text: as §1

KIT(D816H) = KIT(D816H) (Homo sapiens, UniProt P10721, D816H)
From the text: as §1

PIP5K1C = PIP5K1C (Homo sapiens, UniProt O60331)
From the text: as §1

DYRK1B = DYRK1B (Homo sapiens, UniProt Q9Y463)
Chain of DYRK1B (Q9Y463 whole entry): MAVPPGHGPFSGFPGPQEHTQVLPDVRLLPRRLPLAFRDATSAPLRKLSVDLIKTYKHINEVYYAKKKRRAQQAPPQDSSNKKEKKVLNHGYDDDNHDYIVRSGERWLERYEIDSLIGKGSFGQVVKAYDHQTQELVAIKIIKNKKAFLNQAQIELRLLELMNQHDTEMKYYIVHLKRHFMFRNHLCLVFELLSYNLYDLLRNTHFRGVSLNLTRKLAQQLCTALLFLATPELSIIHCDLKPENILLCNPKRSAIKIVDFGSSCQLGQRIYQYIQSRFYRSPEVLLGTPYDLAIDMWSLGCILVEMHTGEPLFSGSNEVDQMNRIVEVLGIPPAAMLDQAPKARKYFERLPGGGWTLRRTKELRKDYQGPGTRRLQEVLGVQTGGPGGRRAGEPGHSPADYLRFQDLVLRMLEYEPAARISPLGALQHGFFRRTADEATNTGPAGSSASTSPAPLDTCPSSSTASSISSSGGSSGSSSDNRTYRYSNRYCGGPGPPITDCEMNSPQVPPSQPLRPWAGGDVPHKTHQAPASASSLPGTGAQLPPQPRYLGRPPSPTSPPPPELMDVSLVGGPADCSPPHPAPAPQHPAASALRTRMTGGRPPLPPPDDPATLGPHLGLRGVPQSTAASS
From the text: as §1

CAMK1D = CAMK1D (Homo sapiens, UniProt Q8IU85)
From the text: as §1

YANK3 = molecular target: T8, YANK3 (Homo sapiens, UniProt Q86UX6)
T8 construct: gene STK32C
From the text: as §1

ACVRL1 = ACVRL1 (Homo sapiens, UniProt P37023)
Chain of ACVRL1 (P37023 whole entry): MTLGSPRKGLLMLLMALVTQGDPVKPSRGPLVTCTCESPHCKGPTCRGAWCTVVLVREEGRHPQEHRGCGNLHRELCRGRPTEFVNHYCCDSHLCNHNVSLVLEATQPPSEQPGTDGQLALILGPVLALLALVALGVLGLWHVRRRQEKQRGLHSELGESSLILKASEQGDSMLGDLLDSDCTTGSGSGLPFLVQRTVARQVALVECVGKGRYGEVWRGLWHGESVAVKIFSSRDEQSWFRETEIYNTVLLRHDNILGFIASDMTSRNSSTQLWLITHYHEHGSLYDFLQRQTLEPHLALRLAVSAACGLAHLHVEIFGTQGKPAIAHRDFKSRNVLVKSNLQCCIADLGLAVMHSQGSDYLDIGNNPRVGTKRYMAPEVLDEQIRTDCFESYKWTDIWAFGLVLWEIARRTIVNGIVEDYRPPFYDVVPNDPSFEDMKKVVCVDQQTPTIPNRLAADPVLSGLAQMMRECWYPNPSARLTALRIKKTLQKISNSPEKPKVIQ
From the text: as §1

TRPM6 = TRPM6 (Homo sapiens, UniProt Q9BX84)
Chain of TRPM6 (Q9BX84 whole entry): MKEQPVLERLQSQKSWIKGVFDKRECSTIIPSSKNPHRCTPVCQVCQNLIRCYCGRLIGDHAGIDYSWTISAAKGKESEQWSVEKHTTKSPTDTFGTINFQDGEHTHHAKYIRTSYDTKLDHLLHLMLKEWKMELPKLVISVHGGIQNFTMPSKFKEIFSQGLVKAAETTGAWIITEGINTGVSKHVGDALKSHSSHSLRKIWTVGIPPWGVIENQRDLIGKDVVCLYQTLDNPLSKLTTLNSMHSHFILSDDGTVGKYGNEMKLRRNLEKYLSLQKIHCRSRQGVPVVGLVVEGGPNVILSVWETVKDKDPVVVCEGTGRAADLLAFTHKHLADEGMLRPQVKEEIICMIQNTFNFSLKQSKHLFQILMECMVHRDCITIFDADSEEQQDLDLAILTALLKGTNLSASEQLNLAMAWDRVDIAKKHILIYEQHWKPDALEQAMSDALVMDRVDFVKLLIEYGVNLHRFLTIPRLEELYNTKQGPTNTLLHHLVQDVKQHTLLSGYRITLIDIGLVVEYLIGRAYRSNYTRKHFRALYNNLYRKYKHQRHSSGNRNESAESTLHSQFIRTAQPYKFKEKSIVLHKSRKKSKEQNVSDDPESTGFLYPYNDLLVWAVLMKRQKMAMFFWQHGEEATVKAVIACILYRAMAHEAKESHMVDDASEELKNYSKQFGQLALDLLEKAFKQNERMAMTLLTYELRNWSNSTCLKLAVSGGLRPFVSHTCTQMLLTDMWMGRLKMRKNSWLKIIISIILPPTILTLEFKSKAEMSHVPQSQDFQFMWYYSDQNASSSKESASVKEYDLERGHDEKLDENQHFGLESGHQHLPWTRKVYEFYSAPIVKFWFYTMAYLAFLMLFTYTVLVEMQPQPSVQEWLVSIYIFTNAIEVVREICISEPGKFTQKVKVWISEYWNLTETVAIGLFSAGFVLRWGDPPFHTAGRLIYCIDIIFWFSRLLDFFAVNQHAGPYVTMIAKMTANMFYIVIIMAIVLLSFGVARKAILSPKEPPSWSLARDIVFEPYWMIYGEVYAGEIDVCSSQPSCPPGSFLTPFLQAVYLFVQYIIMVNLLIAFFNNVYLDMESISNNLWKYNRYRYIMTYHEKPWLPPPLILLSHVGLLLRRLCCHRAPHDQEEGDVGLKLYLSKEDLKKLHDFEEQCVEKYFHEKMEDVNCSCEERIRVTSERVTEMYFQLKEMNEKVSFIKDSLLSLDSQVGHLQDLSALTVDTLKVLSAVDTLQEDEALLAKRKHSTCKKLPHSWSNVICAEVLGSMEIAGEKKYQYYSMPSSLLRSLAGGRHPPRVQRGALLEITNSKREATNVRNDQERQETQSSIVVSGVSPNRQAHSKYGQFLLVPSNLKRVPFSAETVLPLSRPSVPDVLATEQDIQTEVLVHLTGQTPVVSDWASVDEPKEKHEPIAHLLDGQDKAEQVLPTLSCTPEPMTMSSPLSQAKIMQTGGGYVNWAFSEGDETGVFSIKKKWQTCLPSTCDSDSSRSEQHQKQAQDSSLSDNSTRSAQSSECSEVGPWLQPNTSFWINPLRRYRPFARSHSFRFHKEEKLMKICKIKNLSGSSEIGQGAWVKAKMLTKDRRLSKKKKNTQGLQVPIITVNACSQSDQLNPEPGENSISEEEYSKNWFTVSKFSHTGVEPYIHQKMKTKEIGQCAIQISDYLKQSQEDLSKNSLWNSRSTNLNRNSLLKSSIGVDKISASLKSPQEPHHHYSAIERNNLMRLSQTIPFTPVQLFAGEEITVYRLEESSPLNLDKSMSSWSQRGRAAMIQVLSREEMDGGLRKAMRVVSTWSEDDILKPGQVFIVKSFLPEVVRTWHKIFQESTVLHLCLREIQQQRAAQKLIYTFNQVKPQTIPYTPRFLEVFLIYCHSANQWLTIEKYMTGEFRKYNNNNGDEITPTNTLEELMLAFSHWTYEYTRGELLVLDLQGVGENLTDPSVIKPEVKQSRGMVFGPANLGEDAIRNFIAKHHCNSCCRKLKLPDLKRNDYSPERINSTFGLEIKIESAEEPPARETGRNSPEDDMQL
From the text: as §1

Cn1c(=O)[nH]c2ccc(-c3cccc(C(=O)NC4CCn5ccnc5C4)c3)cc21 (stereo not drawn) [Z36-MP5]
remaining binding at 1 µM (TRKC): 53% | remaining binding at 1 µM (YANK1): 95% | remaining binding at 1 µM (IKK-beta): 66% | remaining binding at 1 µM (NIM1): 72% | remaining binding at 1 µM (DDR2): 66% | remaining binding at 1 µM (CLK2): 90% | remaining binding at 1 µM (KIT(D816V)): 58% | remaining binding at 1 µM (CSNK1E): 49% | remaining binding at 1 µM (TTK): 91% | remaining binding at 1 µM (CDKL5): 39% | remaining binding at 1 µM (EGFR): 97% | remaining binding at 1 µM (ERK4): 91% | remaining binding at 1 µM (PIK3CA(M1043I)): 83% | remaining binding at 1 µM (ABL2): 98% | remaining binding at 1 µM [1]: 69% | remaining binding at 1 µM (RET(V804L)): 75% | remaining binding at 1 µM (DCAMKL1): 53% | remaining binding at 1 µM (KIT(D816H)): 78% | remaining binding at 1 µM (PIP5K1C): 66% | remaining binding at 1 µM (DYRK1B): 86% | remaining binding at 1 µM (CAMK1D): 61% | remaining binding at 1 µM (YANK3): 94% | remaining binding at 1 µM (ACVRL1): 92% | remaining binding at 1 µM (TRPM6): 90%
